Type in all cases: cell-based
The test system of experiment [1] is Trypanosoma brucei brucei (Lister 427) strain. The experiment is described as follows: Assay for growth inhibition against Trypanosoma brucei brucei (Cell TiterGlo ATP luminescence). To be noted: Trypanosoma brucei, read-out: T. Brucei (HAT) EC50. Here is the method:
Assay for Growth Inhibition Against Trypanosoma brucei brucei
The proliferation is quantified by the addition of Cell TiterGlo® (Promega®) a luminescent cell viability assay that measures the number of viable cells in culture based on the quantification of cellular ATP amount, which is an indicator of metabolically active cells.
Trypanosoma brucei brucei (Lister 427) strain was grown in Hirumi 9 (HMI-9) media supplemented with 10% v/v fetal bovine serum (FBS) and 10% v/v serum plus. For measurement of cell proliferation inhibition, test compounds were three fold serially diluted in duplicates to 384-well white plates, resulting in 10 dilutions for each compound. A volume of 40 μL of T. b. brucei culture (10,000 parasites/mL) was added to each well, and the assay plates were incubated at 37° C. for 2 days in a CO2 incubator. Growth inhibition was monitored by measuring ATP levels, which, is used as a surrogate marker for growth. Relative luminescence units were measured using TECAN® M1000 after 30 min of adding 40 μl of Cell TiterGlo®. IC50 values were determined by analyzing the data using HELIOS software. IC50 is defined as the lowest concentration of the compound that inhibited 50% growth of the T. b. brucei wild type strain compared to untreated controls.
A general note: Cellular ATP, detected with luciferase, serves as a proxy for viable cell number.

In experiment [2] the test system is Trypanosoma cruzi amastigotes cultured in 3T3 fibroblast cells. The experiment can be described thus: Assay for growth inhibition of kinetoplastid parasite Trypanosoma cruzi (beta-galactosidase Tulahuen strain, CPRG readout). To be noted: Trypanosoma cruzi, Fibroblast, read-out: Buckner infectious T. cruzi EC50. The text has this:
Assay for Growth Inhibition of Kinetoplastid Parasite Trypanosoma cruzi
Compounds of the invention can be assayed for inhibitor activity against Trypanosoma cruzi amastigotes cultured in 3T3 fibroblast cells. The assay is done using the mammalian stage (amastigotes) of T. cruzi that replicates in the intracellular space of host cells. The host cells are initially infected with the culture-derived trypomastigotes that rapidly invade and then divide as amastigotes. The protocol uses the Tulahuen strain of T. cruzi that has been engineered to express the E. coli beta-galactosidase gene (Lac-Z) (Antimicr. Agents Chemoth. 40:2592, 1996). This allows for a colorimetric readout by using the substrate CPRG and an absorbance plate reader.
3T3 fibroblast cells are re-suspended in RPMI-1640 medium without phenol red medium supplemented with 10% FBS (heat inactivated), 100 μg/ml penicillin, and 100 μg/ml streptomycin. Forty μL of suspension (1,000 cells) is dispensed into 384-well plates and incubated overnight at 37° C. temperature and in atmosphere containing 5% CO2. The following day, 100 nL of compounds of the invention in DMSO are added to plate wells containing 3T3 cells. At the same time control compounds (benznidazole and nifurtimox) and DMSO are added to plates to serve as the positive and negative controls, respectively. After that, 10 μL of media containing 10,000 T. cruzi trypomastigotes are added to each plate well and plates are placed back into incubators. After 6 day incubation, 10 μL of reagent solution (0.6 mM CPRG, 0.6% NP-40 in PBS) is added to plates and incubated at room temperature for 2 hours. Absorbance is then measured on SpectraMax GEMINI fluorimeter to determine relative number of T. cruzi cells present in each plate well.

Experiment [3] deals with Leishmania donovani axenic amastigote. The experiment can be described thus: In vitro assay for growth inhibition of Leishmania donovani axenic amastigote (Cell TiterGlo luminescence). Conditions: Leishmania donovani, read-out: L. donovani amastigotes EC50. How it is done:
Abbreviations as used herein below have the corresponding meaning: • CPRG Chlorophenol Red-P-D-galactopyranoside • ATP adenosine triphosphate • BSA bovine serum albumin • DMSO dimethyl sulfoxide • FBS fetal bovine serum • PBS phosphate buffered saline • RPMI 1640 Rosweli Park Memorial Institute (RPMI) 1640 medium In Vitro Assay for Growth Inhibition of Leishmania donovani Axenic Amastiqote
Leishmania donovani axenic amastigote parasites are grown at 37° C., 5% CO2 in media made of RPMI 1640, 4 mM L-glutamine, 20% heat inactivated FBS, 100 units/ml of penicillin and 100 μg/ml of streptomycin, 23 μM folic acid, 100 μM adenosine, 22 mM D-glucose, 25 mM MES. The pH of media is adjusted to 5.5 at 37° C. using HCl. 20 μL of media is first dispensed into 384 well plates and 100 nL of the compounds of invention in DMSO are added to the plate wells. At the same time control compounds and DMSO are added to plates to serve as the positive and negative controls, respectively. 40 μL of parasite culture (9600 parasites) are then added to the plate wells. The plates are then placed into incubators. After two days incubation, 20 μL of Cell TiterGlo® (Promega) is added to the plate wells. The luminescence signal of each well is measured using the Envision reader (Perkin Elmer).

[4] abbreviates: T. cruzi amastigotes in 3T3 fibroblast cells.
[5] abbreviates: L. donovani axenic amastigotes in vitro.

Where two headings read alike, the source gives them in different places.

Regarding `Cc1nc(C)c(C(=O)Nc2ccc(F)c(-n3cc4cc(-c5ncccc5C)cnc4n3)c2)o1` [Compound 1, N-(4-fluoro-3-(5-(3-methylpyridin-2-yl)-2H-pyrazolo[3,4-b]pyridin-2-yl)phenyl)-2,4-dimethyloxazole-5-carboxamide], the results for the EC50 in experiment [1], in experiment [2] and in experiment [3] were < 23 nM, 5.2 nM and 7.1 nM, respectively.

As for `Cc1cccnc1-c1cnc2nn(-c3cc(NC(=O)N4CC[C@@H](F)C4)ccc3F)cc2c1` [Compound 4, (R)-3-fluoro-N-(4-fluoro-3-(5-(3-methylpyridin-2-yl)-2H-pyrazolo[3,4-b]pyridin-2-yl)phenyl)pyrrolidine-1-carboxamide], the EC50 (in general, the concentration needed to bring the measured effect to its halfway point) in experiment [1] (T. brucei brucei (Lister 427)) is < 23 nM; in experiment [2] (setting [4]), 1 nM; in experiment [3] (setting [5]), 1.3 nM.

For the molecule `Cc1cccnc1-c1cnc2nn(-c3cc(NC(=O)N4CC(F)(F)C4)ccc3F)cc2c1` [Compound 5, 3,3-difluoro-N-(4-fluoro-3-(5-(3-methylpyridin-2-yl)-2H-pyrazolo[3,4-b]pyridin-2-yl)phenyl)azetidine-1-carboxamide], the EC50 is < 23 nM in experiment [1] (T. brucei brucei (Lister 427)), 5.3 nM in experiment [2] (setting [4]) and 3.6 nM in experiment [3] (setting [5]).

For the molecule `Cc1cccnc1-c1cnc2nn(-c3cc(NC(=O)N4CC(F)C4)ccc3F)cc2c1` [Compound 6, 3-fluoro-N-(4-fluoro-3-(5-(3-methylpyridin-2-yl)-2H-pyrazolo[3,4-b]pyridin-2-yl)phenyl)azetidine-1-carboxamide], the values for the EC50 in experiment [1] (T. brucei brucei (Lister 427)), in experiment [2] (setting [4]) and in experiment [3] (setting [5]) were < 23 nM, 9.9 nM and 12 nM, respectively.

Turning to `O=C(Nc1ccc(F)c(-n2cc3cc(-c4ccccn4)cnc3n2)c1)c1ccc(F)o1` [Compound 11, 5-fluoro-N-(4-fluoro-3-(5-(pyridin-2-yl)-2H-pyrazolo[3,4-b]pyridin-2-yl)phenyl)furan-2-carboxamide], the EC50 was > 50000 nM in experiment [1] (T. brucei brucei (Lister 427)), 1 nM in experiment [2] (setting [4]) and 2.8 nM in experiment [3] (setting [5]).

Consider `O=C(Nc1ccc(F)c(-n2cc3cc(CC4CCC4)cnc3n2)c1)N1CC(F)C1` [Compound 26, N-{3-[5-(cyclobutylmethyl)-2H-pyrazolo[3,4-b]pyridin-2-yl]-4-fluorophenyl}-3-fluoroazetidine-1-carboxamide], for which the EC50 in experiment [1] (T. brucei brucei (Lister 427)) was < 23 nM; in experiment [2] (setting [4]), 12 nM; in experiment [3] (setting [5]), 9.6 nM.

`O=C(Nc1ccc(F)c(-n2cc3cc(C4CCC4)cnc3n2)c1)N1CC(F)(F)C1` [Compound 31, N-(3-{5-cyclobutyl-2H-pyrazolo[3,4-b]pyridin-2-yl}-4-fluorophenyl)-3,3-difluoroazetidine-1-carboxamide]: the EC50 in experiment [1] (T. brucei brucei (Lister 427)) was < 23 nM; in experiment [2] (setting [4]), 8.3 nM; in experiment [3] (setting [5]), 6.2 nM.

As to `O=C(Nc1ccc(F)c(-n2cc3cc(CC4CCC4)cnc3n2)c1)N1CC(F)(F)C1` [Compound 37, N-{3-[5-(cyclobutylmethyl)-2H-pyrazolo[3,4-b]pyridin-2-yl]-4-fluorophenyl}-3,3-difluoroazetidine-1-carboxamide], the EC50 was < 23 nM in experiment [1] (T. brucei brucei (Lister 427)), 26 nM in experiment [2] (setting [4]) and 23 nM in experiment [3] (setting [5]).

For the molecule `O=C(Nc1ccc(F)c(-n2cc3cc(C4CCC4)cnc3n2)c1)N1CC[C@@H](F)C1` [Compound 45, (3R)-N-(3-{5-cyclobutyl-2H-pyrazolo[3,4-b]pyridin-2-yl}-4-fluorophenyl)-3-fluoropyrrolidine-1-carboxamide], the EC50 in experiment [1] (T. brucei brucei (Lister 427)) is < 23 nM; in experiment [2] (setting [4]), 28 nM; in experiment [3] (setting [5]), 40 nM.

As to `O=C(Nc1ccc(F)c(-n2cc3cc(CC4CCC4)cnc3n2)c1)N1CC[C@@H](F)C1` [Compound 51, (3R)-N-{3-[5-(cyclobutylmethyl)-2H-pyrazolo[3,4-b]pyridin-2-yl]-4-fluorophenyl}-3-fluoropyrrolidine-1-carboxamide], the values for the EC50 in experiment [1] (T. brucei brucei (Lister 427)), in experiment [2] (setting [4]) and in experiment [3] (setting [5]) were < 23 nM, 19 nM and 15 nM, respectively.

`O=C(Nc1ccc(F)c(-n2cc3cc(CC4CCC4)cnc3n2)c1)c1ccco1` [Compound 62, N-{3-[5-(cyclobutylmethyl)-2H-pyrazolo[3,4-b]pyridin-2-yl]-4-fluorophenyl}furan-2-carboxamide]: the results for the EC50 in experiment [1] (T. brucei brucei (Lister 427)), in experiment [2] (setting [4]) and in experiment [3] (setting [5]) were < 23 nM, 5.1 nM and 39 nM, respectively.

`CC(C)c1cnc2nn(-c3cc(NC(=O)C4(C)CCCO4)ccc3F)cc2c1` (stereo not drawn) [Compound 77, N-{4-fluoro-3-[5-(propan-2-yl)-2H-pyrazolo[3,4-b]pyridin-2-yl]phenyl}-2-methyloxolane-2-carboxamide]: the EC50 came out at 8500 nM in experiment [1] (T. brucei brucei (Lister 427)), 6500 nM in experiment [2] (setting [4]) and 17000 nM in experiment [3] (setting [5]).

In the case of `CC(C)c1cnc2nn(-c3cc(NC(=O)N4CCC4)ccc3F)cc2c1` [Compound 100, N-{4-fluoro-3-[5-(propan-2-yl)-2H-pyrazolo[3,4-b]pyridin-2-yl]phenyl}azetidine-1-carboxamide], the EC50 in experiment [1] (T. brucei brucei (Lister 427)) is < 23 nM; in experiment [2] (setting [4]) it was 4.2 nM; in experiment [3] (setting [5]) it was 9.2 nM.

On to `CC(C)c1cnc2nn(-c3cc(NC(=O)c4ccc(CN(C)C)o4)ccc3F)cc2c1` [Compound 111, 5-[(dimethylamino)methyl]-N-{4-fluoro-3-[5-(propan-2-yl)-2H-pyrazolo[3,4-b]pyridin-2-yl]phenyl}furan-2-carboxamide], for which the EC50 came out at 10000 nM in experiment [1] (T. brucei brucei (Lister 427)), 2900 nM in experiment [2] (setting [4]) and 8700 nM in experiment [3] (setting [5]).

In the case of `CC(C)c1cnc2nn(-c3cc(NC(=O)c4ccc(C#N)o4)ccc3F)cc2c1` [Compound 112, 5-cyano-N-{4-fluoro-3-[5-(propan-2-yl)-2H-pyrazolo[3,4-b]pyridin-2-yl]phenyl}furan-2-carboxamide], the EC50 was < 23 nM in experiment [1] (T. brucei brucei (Lister 427)), 2.8 nM in experiment [2] (setting [4]) and 16 nM in experiment [3] (setting [5]).

Consider `Cc1cc(C(=O)Nc2ccc(F)c(-n3cc4cc(C(C)C)cnc4n3)c2)oc1C` [Compound 114, N-{4-fluoro-3-[5-(propan-2-yl)-2H-pyrazolo[3,4-b]pyridin-2-yl]phenyl}-4,5-dimethylfuran-2-carboxamide], for which the figures for the EC50 in experiment [1] (T. brucei brucei (Lister 427)), in experiment [2] (setting [4]) and in experiment [3] (setting [5]) were 54 nM, 45 nM and 310 nM, respectively.

Turning to `Cc1ccoc1C(=O)Nc1ccc(F)c(-n2cc3cc(C(C)C)cnc3n2)c1` [Compound 115, N-{4-fluoro-3-[5-(propan-2-yl)-2H-pyrazolo[3,4-b]pyridin-2-yl]phenyl}-3-methylfuran-2-carboxamide], the results for the EC50 in experiment [1] (T. brucei brucei (Lister 427)), in experiment [2] (setting [4]) and in experiment [3] (setting [5]) were < 23 nM, 14 nM and 150 nM, respectively.

Turning to `CC(C)c1cnc2nn(-c3cc(NC(=O)c4cc5ccccc5o4)ccc3F)cc2c1` [Compound 116, N-{4-fluoro-3-[5-(propan-2-yl)-2H-pyrazolo[3,4-b]pyridin-2-yl]phenyl}-1-benzofuran-2-carboxamide], the EC50 in experiment [1] (T. brucei brucei (Lister 427)) stood at 1500 nM; in experiment [2] (setting [4]) it was 880 nM; in experiment [3] (setting [5]), 3100 nM.

Values taken from US11384078B2, “5,6-fused-bicyclic compounds and compositions for the treatment of parasitic diseases” (NOVARTIS AG, priority 2017, dated 2022).
